Measured values as given in patent US20080021012A1, “3-[4-{6-Substituted Alkanoyl Pyridin-3-Yl}-3-Phenyl]-5-(1H-1,2,3-Triazol-1-Ylmethyl)-1,3-Oxazolidin-2-Ones As Antibacterial Agents” (ASTRAZENECA AB, priority 2004, published 2008).
≈ marks a conversion by molar mass, not a printed value. Counter-ions that a name gives are not always drawn.

Tests used:
[1] = physchem; details: pH 7.4, aqueous buffer, thermodynamic from solid
Description: It will be understood that parameters such as solubility may be measured by any suitable technique known in the art.

[2] = biological target: T1, MAO-A (Homo sapiens, UniProt P21397); assay: MAO-A inhibition, standard in-vitro assay; type: biochemical; details: human liver enzyme expressed in yeast
T1 construct: made in house; host or cells: yeast
T1 sequence (P21397 1-527): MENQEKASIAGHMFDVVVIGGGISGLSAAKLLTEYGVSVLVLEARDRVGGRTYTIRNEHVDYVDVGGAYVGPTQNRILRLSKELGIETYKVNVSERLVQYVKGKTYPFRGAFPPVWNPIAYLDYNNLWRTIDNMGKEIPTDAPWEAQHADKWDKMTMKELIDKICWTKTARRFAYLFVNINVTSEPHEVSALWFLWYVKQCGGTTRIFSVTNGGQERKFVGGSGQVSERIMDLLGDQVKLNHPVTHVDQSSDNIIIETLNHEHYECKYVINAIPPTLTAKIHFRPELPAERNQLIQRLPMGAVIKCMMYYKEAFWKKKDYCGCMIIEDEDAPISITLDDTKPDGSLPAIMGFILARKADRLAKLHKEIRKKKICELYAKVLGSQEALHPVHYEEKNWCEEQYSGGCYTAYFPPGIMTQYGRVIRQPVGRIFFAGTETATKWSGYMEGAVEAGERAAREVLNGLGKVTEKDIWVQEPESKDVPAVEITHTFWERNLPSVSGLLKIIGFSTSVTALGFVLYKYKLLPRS
Procedure: Inhibition of mono-amine oxidase (MAO) is a known potential side effect of oxazolidinone antibiotics (see for example WO 03/072575).
The activity of the compounds of the invention against MAO-A was tested using a standard in-vitro assay based on human liver enzyme expressed in yeast as described in Biochem. Biophys. Res. Commun. 1991, 181, 1084-1088. Compounds of the invention typically give Ki values of >5 μM when measured in such an assay as above.

[3] = tested on: Staphylococcus aureus MSQS; assay: MIC, agar-dilution, Staphylococcus aureus MSQS; type: cell-based; details: Staphylococcus aureus MSQS (methicillin sensitive and quinolone sensitive), 10^4 CFU/spot, 37° C., 24 hours
Procedure: (§1) The following results were obtained on a standard in-vitro test system. The activity is described in terms of the minimum inhibitory concentration (MIC) determined by the agar-dilution technique with an inoculum size of 10^4 CFU/spot. Typically, compounds are active in the range 0.01 to 256 μg/ml.
(§2) Staphylococci were tested on agar, using an inoculum of 10^4 CFU/spot and an incubation temperature of 37° C. for 24 hours—standard test conditions for the expression of methicillin resistance.

[4] = tested on: Staphylococcus aureus MRQR; assay: MIC, agar-dilution, Staphylococcus aureus MRQR; type: cell-based; details: Staphylococcus aureus MRQR (methicillin resistant and quinolone resistant), 10^4 CFU/spot, 37° C., 24 hours
Procedure: as §1, §2

[5] = tested on: Streptococcus pneumoniae; assay: MIC, agar-dilution, Streptococcus pneumoniae; type: cell-based; details: agar with 5% defibrinated horse blood, 37° C., 5% carbon dioxide, 48 hours
Procedure: as §1
(§3) Streptococci and enterococci were tested on agar supplemented with 5% defibrinated horse blood, an inoculum of 10^4 CFU/spot and an incubation temperature of 37° C. in an atmosphere of 5% carbon dioxide for 48 hours—blood is required for the growth of some of the test organisms. Fastidious Gram negative organisms were tested in Mueller-Hinton broth, supplemented with hemin and NAD, grown aerobically for 24 hours at 37° C., and with an innoculum of 5×10^4 CFU/well.

[6] = tested on: Haemophilus influenzae; assay: MIC, Haemophilus influenzae; type: cell-based; details: Mueller-Hinton broth with hemin and NAD, 24 hours, 37° C.
Procedure: as §1, §3

[7] = tested on: Moraxella catarrhalis; assay: MIC, Moraxella catarrhalis; type: cell-based; details: Mueller-Hinton broth with hemin and NAD, 24 hours, 37° C.
Procedure: as §1, §3

[8] = tested on: Linezolid Resistant Streptococcus pneumoniae; assay: MIC, Linezolid Resistant Streptococcus pneumoniae; type: cell-based
Procedure: as §1, §3

melting point	Ki [2] [nM]	SMILES	other results
78 to 80 °C		COCc1nccn1CC(=O)c1ccc(-c2ccc(N3C[C@H](Cn4ccnn4)OC3=O)cc2F)cn1 [Example 15, (5R)-3-[3-Fluoro-4-(6-{[2-(methoxymethyl)-1H-imidazol-1-yl]acetyl}pyridin-3-yl)phenyl]-5-(1H-1,2,3-triazol-1-ylmethyl)-1,3-oxazolidin-2-one]	
		CC(=O)NC[C@H]1CN(c2ccc(-c3ccc(-c4nnn(C)n4)nc3)c(F)c2)C(=O)O1 [Reference Example 4]	solubility thermodynamic [1]: 35.1 µM (≈ 14.4 µg/mL)
78 °C		Cc1cn(CC(=O)c2ccc(-c3ccc(N4C[C@H](Cn5ccnn5)OC4=O)cc3F)cn2)c(C)n1 [Example 13, (5R)-3-(4-{6-[(2,4-Dimethyl-1H-imidazol-1-yl)acetyl]pyridin-3-yl}-3-fluorophenyl)-5-(1H-1,2,3-triazol-1-ylmethyl)-1,3-oxazolidin-2-one]	
77 to 79 °C		CCc1nccn1CC(=O)c1ccc(-c2ccc(N3C[C@H](Cn4ccnn4)OC3=O)cc2F)cn1 [Example 14, (5R)-3-(4-{6-[(2-Ethyl-1H-imidazol-1-yl)acetyl]pyridin-3-yl}-3-fluorophenyl)-5-(1H-1,2,3-triazol-1-ylmethyl)-1,3-oxazolidin-2-one]	
> 90 °C (dec.)		O=C(c1ccc(-c2ccc(N3C[C@H](Cn4ccnn4)OC3=O)cc2F)cn1)C1CNC1 (as salt: hydrochloride) [Example 9, (5R)-3-{4-[6-(Azetidin-3-ylcarbonyl)pyridin-3-yl]-3-fluorophenyl}-5-(1H-1,2,3-triazol-1-ylmethyl)-1,3-oxazolidin-2-one]	
		Cn1nnc(-c2ccc(-c3ccc(N4C[C@H](Cn5ccnn5)OC4=O)cc3F)cn2)n1 [Reference Example 5, (5R)-3-(3-Fluoro-4-(6-(2-methyl-2H-tetrazol-5-yl)pyrid-3-yl)phenyl)-5-(1H-1,2,3-triazol-1-ylmethyl)-1,3-oxazolidin-2-one]	solubility thermodynamic [1]: < 7.1 µM
> 230 °C (dec.)		O=C(Cn1ccnc1)c1ccc(-c2ccc(N3C[C@H](Cn4ccnn4)OC3=O)cc2F)cn1 (as salt: hydrochloride) [Example 1, (5R)-3-{3-Fluoro-4-[6-(1H-imidazol-1-ylacetyl)pyridin-3-yl]phenyl}-5-(1H-1,2,3-triazol-1-ylmethyl)-1,3-oxazolidin-2-one]	
> 217 °C (dec.)		Cc1cn(CC(=O)c2ccc(-c3ccc(N4C[C@H](Cn5ccnn5)OC4=O)cc3F)cn2)cn1 (as salt: hydrochloride) [Example 5, (5R)-3-(3-Fluoro-4-{6-[(4-methyl-1H-imidazol-1-yl)acetyl]pyridin-3-yl}phenyl)-5-(1H-1,2,3-triazol-1-ylmethyl)-1,3oxazolidin-2-one]	
81 °C		CCCc1nccn1CC(=O)c1ccc(-c2ccc(N3C[C@H](Cn4ccnn4)OC3=O)cc2F)cn1 [Example 11]	
> 180 °C (dec.)	700	O=Cc1ccc(-c2ccc(N3C[C@H](Cn4ccnn4)OC3=O)cc2F)cn1 [Ref Example 2, 5-{2-Fluoro4-[(5R)-2-oxo-5-(1H-1,2,3-triazol-1-ylmethyl)-1,3-oxazolidin-3-yl]phenyl}pyridine-2-carbaldehyde]	
> 196 °C (dec.)		O=C(CC1CCNCC1)c1ccc(-c2ccc(N3C[C@H](Cn4ccnn4)OC3=O)cc2F)cn1 (as salt: hydrochloride) [Example 6, (5R)-3-{3-Fluoro-4-[6(piperidin-4-ylacetyl)pyridin-3-yl]phenyl}-5-(1H-1,2,3-triazol-1-ylmethyl)-1,3-oxazolidin-2-one]	
> 240 °C (dec.)		Cc1nccn1CC(=O)c1ccc(-c2ccc(N3C[C@H](Cn4ccnn4)OC3=O)cc2F)cn1 (as salt: hydrochloride) [Example 4]	
> 210 °C (dec.)	720	CC(=O)c1ccc(-c2ccc(N3C[C@H](Cn4ccnn4)OC3=O)cc2F)cn1 [Ref Example 1, (5R)-3-[4-(6-Acetylpyridin-3-yl)-3-fluorophenyl]-5-(1H-1,2,3-triazol-1-ylmethyl)-1,3-oxazolidin-2-one]	
82 to 83 °C		CC(C)c1nccn1CC(=O)c1ccc(-c2ccc(N3C[C@H](Cn4ccnn4)OC3=O)cc2F)cn1 [Example 12]	
> 275 °C (dec.)		O=C(c1ccc(-c2ccc(N3C[C@H](Cn4ccnn4)OC3=O)cc2F)cn1)C1CCNCC1 (as salt: hydrochloride) [Example 8, (5R)-3-{3-Fluoro-4-[6-(piperidin-4-ylcarbonyl)pyridin-3-yl]phenyl}-5-(1H-1,2,3-triazol-1-ylmethyl)-1,3-oxazolidin-2-one]	
	15000	O=C(CCCN1CCOCC1)c1ccc(-c2ccc(N3C[C@H](Cn4ccnn4)OC3=O)cc2F)cn1 [Example 2, (5R)-3-{3-Fluoro-4-[6-(4-morpholin-4-ylbutanoyl)pyridin-3-yl]phenyl}-5-(1H-1,2,3-triazol-1-ylmethyl)-1,3-oxazolidin-2-one]	
> 230 °C (dec.)	< 300	O=C1O[C@@H](Cn2ccnn2)CN1c1ccc(-c2ccc(/C=N/O)nc2)c(F)c1 [Ref Example 3, 5-{2-Fluoro-4-[(5R)-2-oxo-5-(1H-1,2,3-triazol-1-ylmethyl)-1,3-oxazolidin-3-yl]phenyl}pyridine-2-carbaldehyde oxime]	
	> 5000	O=C(Cn1ccnc1)c1ccc(-c2ccc(N3C[C@H](Cn4ccnn4)OC3=O)cc2F)cn1 [Example 1, (5R)-3-{3-Fluoro-4-[6-(1H-imidazol-1-ylacetyl)pyridin-3-yl]phenyl}-5-(1H-1,2,3-triazol-1-ylmethyl)-1,3-oxazolidin-2-one]	solubility [1]: 1450 µM (≈ 650 µg/mL); MIC [3]: 0.25 µg/mL (≈ 0.559 µM); MIC [4]: 0.25 µg/mL (≈ 0.559 µM); MIC [5]: 0.13 µg/mL (≈ 0.291 µM); MIC [6]: 2 µg/mL (≈ 4.47 µM); MIC [7]: 0.5 µg/mL (≈ 1.12 µM); MIC [8]: 0.5 µg/mL (≈ 1.12 µM)
192 °C	6400	CC(C)(C)O/N=C/c1ccc(-c2ccc(N3C[C@H](Cn4ccnn4)OC3=O)cc2F)cn1 [Example 3]	
